{"source": "patent EP1829539A2", "about": "“A method for treating tension-type headache” (priority 1996, dated 1998)", "key": {"[1]": {"test_system": "patients with chronic tension-type headache", "assay": "Open labelled pilot study of prophylactic Dextromethorphan in chronic tension-type headache", "type": "in vivo, human", "from_the_text": "Five patients with a diagnosis of chronic tension-type headache according to the International Headache Society (Headache Classification Committee 1988) were recruited from the outpatient headache clinic at Glostrup Hospital. There were 2 males and 3 females, and the mean age was 45.4 years (range 39-48). The mean life time duration of chronic tension-type headache was 12.2 years (range 4-25). One patient had coexisting but infrequent migraine. Exclusion criteria were: daily major medication (including prophylactic headache therapy); abuse of analgesics or alcohol; serious somatic or psychiatric diseases including depression.\nUsing an open labelled design, patients fulfilled a diagnostic headache diary during at least 4 weeks run-in period to ensure the diagnostic criteria. Thereafter, the patients received Dextromethorphan (Dexofan®) tablets at 30 mg each, three times per day. The treatment period lasted 4 weeks, and during this period patients were asked to continue with headache diaries, and record headache intensity, frequency, duration, any medication taken and any possible adverse events. At a follow up visit at day 29-32, diaries were collected and possible adverse events and evaluation of the treatment were recorded. Due to the restricted number of patients, no statistical analysis were done. The efficacy parameters were headache intensity, frequency and duration, and intake of simple analgesics. Mean values from the run-in period were compared to those obtained during the treatment period."}, "GABA A": {"test_system": "GABA A", "conditions": "binding studies; cited from earlier work"}, "[2]": {"test_system": "alpha-2-subunit of a calcium channel", "conditions": "Gee et al. 1996; cited from earlier work"}, "[3]": {"test_system": "patients with chronic tension-type headache", "assay": "Open labelled pilot study of prophylactic Gabapentin in chronic tension-type headache", "type": "in vivo, human", "from_the_text": "Three patients with a diagnosis of chronic tension-type headache according to the International Headache Society (Headache Classification Committee 1988) were recruited from the outpatient headache clinic at Glostrup Hospital. The patients were males with a mean age of 42 years (range 35-49). The mean life time duration of chronic tension-type headache was 16 years (range 7-21). […] Exclusion criteria were: daily major medication (including prophylactic headache therapy); abuse of analgesics or alcohol; serious somatic or psychiatric diseases including depression.\nUsing an open labelled design, patients fulfilled a diagnostic headache diary during at least 4 weeks run-in period to ensure the diagnostic criteria. Thereafter, the patients received Gabapentin (Neurontin®) tablets, initially 300 mg (one tablet) per day on day one, increasing with 300 mg (1 tablet) per day to 900 mg (3 tablets) on day 3. The treatment period lasted 4 weeks, and during this period patients were asked to continue with headache diaries, and record headache intensity, frequency, duration, any medication taken and any possible adverse events. At a follow up visit at day 29-32, diaries were collected and any adverse events and evaluation of the treatment were recorded. Due to the low number of patients, no statistical analysis were done. The primary efficacy parameters were headache intensity, frequency and duration, and the mean values from the run-in period were compared to those obtained during the treatment period."}, "tension-type headache": {"test_system": "tension-type headache", "conditions": "Brennum et al. 1992, 1996; cited from earlier work"}, "migraine": {"test_system": "migraine", "conditions": "in vivo; cited from earlier work"}, "[4]": {"test_system": "patients with chronic tension-type headache", "assay": "Double-blind crossover study of intravenous L-NMMA versus placebo in chronic tension-type headache", "type": "in vivo, human", "experimental": "Five patients with coexisting infrequent migraine (≤ one day/month) were accepted. […] At screening, a full physical and neurological examination, including 12-lead ECG were carried out. Blood samples for routine haematological and biochemical testing, and urine sample for urinanalysis were taken. The patients were not allowed to take analgesics 12 hours prior to the treatment. […] All patients gave written informed consent to participate in the study, which was approved by the local ethics committee and conducted in accordance with the Declaration of Helsinki.\nUsing a double-blind crossover design, the patients were randomised to receive 6 mg/kg L-NMMA (Clinalfa, Switzerland) or placebo (isotone glucose) on two days with a typical episode of tension-type headache separated by at least one week. Randomisation (Med.Stat) and drug preparation were performed by staff not involved in the study. The medication was given over 15 minutes into an antecubital vein (Braun Perfusor). The following parameters were measured at baseline and 15, 30, 60 and 120 minutes post administration: headache intensity on a 100-mm Visual Analog Scale (VAS) (0 - no headache and 100 - worst imaginable headache) and on a Verbal Rating Scale (VRS) from 0-10 (0 - no headache; 5 - moderate headache; 10 - worst imaginable headache). Blood pressure and pulse rate were measured 5 minutes prior to administration of treatment and at 5, 10, 15, 20, 25, 30, 60, 90 and 120 minutes post administration. Twelve-lead ECG was monitored continuously. Any adverse events were recorded. Patients with unrelieved headache at 120 minutes post treatment were allowed to take rescue medication. All patients were asked to record details of the following on a diary card at 4, 8, 12, 16, 20 and 24 hours post administration: headache intensity on VRS, any medication taken and adverse events. Between 4-7 days after each treatment, the patients returned to the clinic, the diary cards were collected and any adverse events were noted.\nThe secondary endpoints were reduction of pain intensity at 30, 60, 90 and 120 minutes post dosing on VAS and VRS compared to pre-treatment pain score within each treatment. Comparison of pain intensity on VAS, blood pressure and pulse rate over time between treatments were performed with ANOVA. Paired-Samples T Test was used to compare pre-treatment pain score on VAS with pain score at 30, 60, 90, 120 minutes post dosing within each treatment. […] These sums of differences for each treatment were compared by Wilcoxon Signed Rank test. Five percent was accepted as level of significance."}, "[5]": {"conditions": "0-10 VAS intensity scale, mean, before treatment"}, "[6]": {"conditions": "100-mm VAS, 6 mg/kg L-NMMA i.v. over 15 minutes, mean (SD), p < 0.05 vs pretreatment"}}, "note": "Structures can show the parent of a compound that is named as a salt."}
{"smiles": "COc1ccc2c(c1)[C@]13CCCC[C@@H]1[C@H](C2)N(C)CC3", "note": "[Dextromethorphan]", "values": [{"measurement": "Intensity of headache during active treatment", "setting": "[1]; 0-10 VAS intensity scale, mean", "value": 3.6}, {"measurement": "Intensity of headache during the run-in period", "setting": "[1]; [5]", "value": 4.4}, {"measurement": "Frequency of headache during run-in", "setting": "[1]; before treatment", "value": 28, "unit": "days per 4 weeks period"}, {"measurement": "Mean intake of analgesics during run-in period", "setting": "[1]; before treatment", "value": 1.8, "unit": "dose per day"}, {"measurement": "Patients reporting a marked effect", "setting": "[1]; considerable relief of headache intensity and duration within very few days, of 5 patients", "value": "Two"}, {"measurement": "Frequency of headache during active treatment", "setting": "[1]; in vivo", "value": 27, "unit": "days per 4 weeks period"}, {"measurement": "Mean intake of analgesics during active treatment", "setting": "[1]; in vivo", "value": 0.5, "unit": "dose per day"}, {"measurement": "Patients reporting no effect at all", "setting": "[1]; of 5 patients", "value": "two"}, {"measurement": "Patients reporting no side effects", "setting": "[1]; of 5 patients", "value": "Four"}, {"measurement": "Patients with a slight relief of headache intensity", "setting": "[1]; of 5 patients", "value": "one"}, {"measurement": "Patients with marked side effects with sedation", "setting": "[1]; the patient with best clinical response, diminished after dose reduction to 40 mg per day", "value": "one"}, {"measurement": "Reduction of intensity of headache", "setting": "[1]; treatment period (4 weeks, 30 mg three times per day) vs run-in, 5 patients", "value": 18, "unit": "%"}, {"measurement": "Decrease of frequency of headache", "setting": "[1]; treatment period vs run-in", "value": 4, "unit": "%"}, {"measurement": "Decrease of intake of analgesics", "setting": "[1]; treatment period vs run-in", "value": 72, "unit": "%"}, {"measurement": "Reduction of duration of the individual headache episode", "setting": "[1]; treatment period vs run-in", "value": 11, "unit": "%"}]}
{"smiles": "NCC1(CC(=O)O)CCCCC1", "note": "[Gabapentin]", "values": [{"measurement": "Affinity for GABA A", "setting": "GABA A", "value": "fail to show affinity"}, {"measurement": "Binding affinity to the alpha-2-subunit of a calcium channel", "setting": "[2]", "value": "showed binding affinity"}, {"measurement": "Headache intensity during active treatment", "setting": "[3]; 0-10 VAS intensity scale, mean, 4 weeks", "value": 3.6}, {"measurement": "Headache intensity during run-in period", "setting": "[3]; [5]", "value": 5.5}, {"measurement": "Frequency of headache during run-in period", "setting": "[3]; before treatment", "value": 23.5, "unit": "days per 4 weeks"}, {"measurement": "Mean daily intake of analgesics, run-in", "setting": "[3]; before treatment", "value": 1.1, "unit": "dose per day"}, {"measurement": "Individual response, one patient", "setting": "[3]; complete relief of the headache after 2 days treatment", "value": "excellent effect"}, {"measurement": "Side effects in the third patient", "setting": "[3]; disappeared completely after cessation of the drug intake", "value": "sedation, vertigo and slight nausea"}, {"measurement": "Frequency of headache during the active treatment period", "setting": "[3]; in vivo", "value": 13, "unit": "days per 4 weeks"}, {"measurement": "Mean daily intake of analgesics, active treatment", "setting": "[3]; in vivo", "value": 0.3, "unit": "dose per day"}, {"measurement": "Individual response, third patient", "setting": "[3]; on any of efficacy parameters", "value": "no significant effect"}, {"measurement": "Individual response, another patient", "setting": "[3]; on headache intensity and frequency", "value": "moderate effect"}, {"measurement": "Decrease of headache intensity", "setting": "[3]; treatment period (4 weeks, up to 900 mg per day) vs run-in, 3 patients", "value": 35, "unit": "%"}, {"measurement": "Decrease of frequency of headache", "setting": "[3]; treatment period vs run-in", "value": 45, "unit": "%"}, {"measurement": "Decrease of mean daily intake of analgesics", "setting": "[3]; treatment period vs run-in", "value": 72, "unit": "%"}, {"measurement": "Reduction of duration of the individual headache episode", "setting": "[3]; treatment period vs run-in", "value": 8, "unit": "%"}]}
{"smiles": "CNS(=O)(=O)Cc1ccc2[nH]cc(CCN(C)C)c2c1", "note": "[sumatriptan]", "values": [{"measurement": "Efficacy in tension-type headache", "setting": "tension-type headache", "value": "not effective to a clinically relevant extent"}, {"measurement": "Efficacy in migraine", "setting": "migraine", "value": "highly effective"}]}
{"smiles": "CNC(=N)NCCC[C@H](N)C(=O)O", "note": "[L-NMMA, L- N^G methyl arginine hydrochloride]", "values": [{"measurement": "Pain scores on VAS, 30 minutes post dosing", "setting": "[4]; [6]", "value": "38 ± 18"}, {"measurement": "Pain scores on VAS, 60 minutes post dosing", "setting": "[4]; [6]", "value": "35 ± 18"}, {"measurement": "Pain scores on VAS, 90 minutes post dosing", "setting": "[4]; [6]", "value": "34 ± 21"}, {"measurement": "Pain scores on VAS, 120 minutes post dosing", "setting": "[4]; [6]", "value": "33 ± 21"}, {"measurement": "Pain scores on VAS before treatment (Baseline)", "setting": "[4]; 100-mm VAS, pre-treatment value on the L-NMMA day, 16 patients, mean (SD)", "value": "49 ± 16"}, {"measurement": "Pain intensity on VRS compared with placebo", "setting": "[4]; Verbal Rating Scale 0-10, sum of differences, Wilcoxon, p=0.02", "value": "significantly lower after treatment with L-NMMA than after treatment with placebo"}, {"measurement": "Withdrawal from the study because of side effects", "setting": "[4]; in vivo", "value": "No patients withdrew from the study because of side effects"}, {"measurement": "Maximum decrease in pulse rate", "setting": "[4]; occurred 10 minutes post dosing, 6 mg/kg i.v.", "value": "16 ± 2", "unit": "%"}, {"measurement": "Maximum increase in mean arterial blood pressure (MAP)", "setting": "[4]; occurred 15 minutes post dosing, 6 mg/kg i.v.", "value": "12 ± 2", "unit": "%"}, {"measurement": "Patients reporting subjective symptoms in relation to the infusion", "setting": "[4]; of 16 patients", "value": "Seven"}, {"measurement": "Subjective symptom: a feeling of tingling in arm (number of patients)", "setting": "[4]; of 16 patients", "value": 1}, {"measurement": "Subjective symptom: drowsiness (number of patients)", "setting": "[4]; of 16 patients", "value": 1}, {"measurement": "Subjective symptom: dryness of the mouth (number of patients)", "setting": "[4]; of 16 patients", "value": 3}, {"measurement": "Subjective symptom: exhaustion (number of patients)", "setting": "[4]; of 16 patients", "value": 1}, {"measurement": "Subjective symptom: nausea (number of patients)", "setting": "[4]; of 16 patients", "value": 1}, {"measurement": "Subjective symptom: tiredness (number of patients)", "setting": "[4]; of 16 patients", "value": 2}, {"measurement": "Patients who used simple analgesics as rescue medication", "setting": "[4]; of 16 patients, 7 on placebo", "value": "Three"}, {"measurement": "Reduction of pain intensity (VAS) over time compared with placebo", "setting": "[4]; primary endpoint, ANOVA, p=0.007, 16 patients, hydrochloride", "value": "reduced pain intensity (VAS) over time significantly more than placebo"}]}
